From US5342980A, “Fungicidal agents” (American Cyanamid Company, priority 1992, dated 1994)

Key:
Botrytis cinerea = test: In vivo fungicidal evaluation, Pepper Botrytis (PB); settings: 200 ppm, plants sprayed before inoculation
Alternaria solani = test: In vivo fungicidal evaluation, Tomato Early Blight (TEB); settings: 200 ppm, plants sprayed before inoculation
Rhizoctonia solani = test: In vitro fungicidal evaluation, growth inhibition (RHIZSO); type: cell-based; design: scale not given here; settings: 25 ppm, 3-4 days at 21° C.
Method: (§1) Test compounds are dissolved in acetone and dispersed into cell well plates containing a suspension of ground fungal mycelia in a nutrient broth. Assay plates are incubated for 3-4 days at 21° C. Growth inhibition is measured visually and is rated using the following scale:
(§2) Untreated controls, solvent blanks and reference standards are included in each test.
(§3) Assay fungi include the plant pathogens, Pythium ultimum (Pythul); Rhizoctonia solani (Rhizso); Fusarium oxysporum f. sp. cucumerinum (Fusoxc); and Pseudocercosporella herpotrichoides (Psdche).
(§4) When more than one test is run, the data are averaged.

Pyricularia oryzae = type: in vivo; settings: 200 ppm, plants sprayed before inoculation
Plasmopara viticola = test: In vivo fungicidal evaluation, Grape Downy Mildew (GDM); settings: 200 ppm, plants sprayed before inoculation
Pythium ultimum = test: In vitro fungicidal evaluation, growth inhibition (PYTHUL); type: cell-based; design: scale not given here; settings: 25 ppm, 3-4 days at 21° C.
Method: as §1, §2, §3, §4

[1] = system: Fusarium oxysporum f. sp. cucumerinum; test: In vitro fungicidal evaluation, growth inhibition (FUSOXC); type: cell-based; design: scale not given here; settings: 25 ppm, 3-4 days at 21° C.
Method: as §1, §2, §3, §4

[2] = system: Erysiphe graminis f. sp. tritici; test: In vivo fungicidal evaluation, Wheat Powdery Mildew (WPM); settings: 200 ppm, plants sprayed before inoculation
Venturia inaequalis = test: In vivo fungicidal evaluation, Apple Scab (AS); settings: 200 ppm, plants sprayed before inoculation
Cercospora beticola = test: In vivo fungicidal evaluation, Sugar Beet Cercospora (SBC); settings: plants sprayed before inoculation
[3] = system: Pseudocercosporella herpotrichoides; test: In vitro fungicidal evaluation, growth inhibition (PSDCHE); type: cell-based; design: scale not given here; settings: 25 ppm, 3-4 days at 21° C.
Method: as §1, §2, §3, §4

| Molecule | disease control rating, PB (Botrytis cinerea) | disease control rating, TEB (Alternaria solani) | growth inhibition rating, RHIZSO (Rhizoctonia solani) | disease control rating, RB (Pyricularia oryzae) | disease control rating, GDM (Plasmopara viticola) | growth inhibition rating, PYTHUL (Pythium ultimum) | growth inhibition rating, FUSOXC [1] | disease control rating, WPM [2] | disease control rating, AS (Venturia inaequalis) | disease control rating, SBC (Cercospora beticola; 200 ppm) | disease control rating, SBC (Cercospora beticola; 400 ppm) | growth inhibition rating, PSDCHE [3] |
| --- | --- | --- | --- | --- | --- | --- | --- | --- | --- | --- | --- | --- |
| N-methyl-alpha-thio-1-adamantaneglyoxylohydroxamic acid zinc(+2) chelate | 0.0 | 0.0 | 0.0 | 0.0 | 0.0 | 1.5 | 0.0 | 0.0 | 0.0 | 0.5 | 3.0 | 0.0 |
| CN(O)C(=S)C(=O)C1(C)CC1 [N,1-dimethyl-alpha-thio-cyclopropaneglyoxylohydroxamic acid] |  |  | 0.0 |  |  | 7.0 | 0.5 |  |  |  |  | 0.0 |
| CN([O-])C(=S)C(=O)C12CC3CC(CC(C3)C1)C2.CN([O-])C(=S)C(=O)C12CC3CC(CC(C3)C1)C2.[Cu+2] [N-methyl-alpha-thio-1-adamantaneglyoxylohydroxamic acid copper(+2) chelate] | 0.0 | 0.0 | 0.0 | 0.0 | 0.0 | 0.0 | 0.0 | 0.0 | 0.0 | 0.5 | 1.8 | 0.0 |
| CC(C)(C)C(=O)C(=S)N(O)C1CCCC1 [N-cyclopentyl-3,3-dimethyl-2-oxo-1-thiobutyrohydroxamic acid] | 0.0 | 0.0 | 1.5 | 0.0 | 0.0 | 3.0 | 1.5 | 0.0 | 0.0 | 0.3 |  | 1.5 |
| CN(O)C(=S)C(=O)C12CC3CC(CC(C3)C1)C2 [N-methyl-α-thio-1-adamantaneglyoxylohydroxamic acid] | 0.0 | 0.0 | 1.0 | 0.0 | 0.0 | 7.0 | 1.7 | 0.0 | 0.0 | 1.8 | 3.0 | 3.3 |
| C=CC(=O)ON(C)C(=S)C(=O)C(C)(C)C [acrylate ester of N,3,3-trimethyl-2-oxo-1-thiobutyrohydroxamate] | 2.0 | 0.0 | 0.0 | 0.0 | 0.0 | 9.0 | 0.0 | 0.0 | 0.0 | 0.0 |  | 7.0 |
| CC(C)(C)C(=O)C(=S)N([O-])C1CCCC1.CC(C)(C)C(=O)C(=S)N([O-])C1CCCC1.CC(C)(C)C(=O)C(=S)N([O-])C1CCCC1.[Fe+3] [N-cyclopentyl-3,3-dimethyl-2-oxo-1-thiobutyrohydroxamicacid iron(+3) chelate] | 0.0 | 0.0 | 0.0 | 0.0 | 0.0 | 0.0 | 0.0 | 0.0 | 0.0 | 0.8 | 1.8 | 0.0 |
| CC(C)N([O-])C(=S)C(=O)C(C)(C)C.CC(C)N([O-])C(=S)C(=O)C(C)(C)C.[Zn+2] [N-isopropyl-3,3-dimethyl-2-oxo-1-thiobutyrohydroxamic acid zinc (+2) chelate] | 2.0 | 0.0 | 1.0 | 0.0 | 3.0 | 6.3 | 2.7 | 0.0 | 0.0 | 0.0 |  | 0.0 |
| CC(=O)ON(C)C(=S)C(=O)C(C)(C)C [acetate ester of N,3,3-trimethyl-2oxo-1-thiobutyrohydroxamate] | 0.0 | 5.0 | 0.0 | 0.0 | 0.0 | 9.0 | 0.0 | 0.0 | 0.0 | 0.0 |  | 0.0 |
